Measurements taken from patent US4894388A, “Glycosidase inhibitors and use thereof” (priority 1988, dated 1990).

Experiments:
Type in all cases: biochemical
[1] = molecular target: T1, β-D-mannosidase (Homo sapiens, UniProt O00462); assay: Inhibition of β-D-mannosidase in human liver extract; conditions: 1 mM inhibitor; 0.5 mM substrate; optimal pH; mean of 2-4 determinations
T1 construct: The glycosidase activities in an extract of normal human liver were assayed; from tissue; host or cells: post mortem human liver, 37,000 g supernatant
T1 sequence (O00462 18-879): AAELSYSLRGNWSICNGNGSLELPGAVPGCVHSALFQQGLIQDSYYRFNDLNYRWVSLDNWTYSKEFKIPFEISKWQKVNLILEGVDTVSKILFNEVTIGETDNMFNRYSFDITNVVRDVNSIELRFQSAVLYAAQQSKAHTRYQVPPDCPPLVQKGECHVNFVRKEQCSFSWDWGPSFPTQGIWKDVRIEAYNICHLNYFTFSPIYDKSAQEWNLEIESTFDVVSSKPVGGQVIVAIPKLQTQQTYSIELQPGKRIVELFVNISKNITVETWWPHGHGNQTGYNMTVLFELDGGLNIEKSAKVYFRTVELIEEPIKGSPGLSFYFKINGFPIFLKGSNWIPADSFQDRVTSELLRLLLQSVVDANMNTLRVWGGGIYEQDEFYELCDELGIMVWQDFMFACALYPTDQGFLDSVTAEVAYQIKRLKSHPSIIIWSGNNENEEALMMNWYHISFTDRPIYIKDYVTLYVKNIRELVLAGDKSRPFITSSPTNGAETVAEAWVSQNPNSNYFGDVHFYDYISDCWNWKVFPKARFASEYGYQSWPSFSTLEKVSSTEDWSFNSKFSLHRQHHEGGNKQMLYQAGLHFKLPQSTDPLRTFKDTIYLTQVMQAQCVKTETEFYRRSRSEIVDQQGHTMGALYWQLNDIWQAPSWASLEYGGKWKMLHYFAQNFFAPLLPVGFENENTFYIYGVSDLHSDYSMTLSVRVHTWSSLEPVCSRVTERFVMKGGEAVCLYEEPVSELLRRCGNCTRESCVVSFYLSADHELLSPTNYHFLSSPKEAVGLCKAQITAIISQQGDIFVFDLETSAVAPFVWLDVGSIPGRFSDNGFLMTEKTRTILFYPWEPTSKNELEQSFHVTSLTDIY
Procedure: (§1) Post mortem human liver, which had been stored at -20° C. until required was homogenized in deionized water (50%, w/v) in a Potter-Elvehjem homogenizer and then centrifuged at 37,000 g for 30 min in an MSE 18 centrifuge. The resultant supernatant was used as the source of enzymic activities.
(§2) The glycosidase activities in an extract of normal human liver were assayed by using the appropriate fluorigenic 4-methylumbelliferyl glycoside substrate (Koch-Light, Haverhill, Suffolk, U.K.) with a concentration of 0.5 mM at the optimal pH of each enzyme [Burditt et al., Clin. Chim. Acta 140, 201-209 (1980)]. Human liver acidic (lysomal) and neutral (cystosolic) α-D-mannosidases were assayed similarly at their pH-optima, of 4.0 and 6.5, respectively, after separation by affinity chromatography on concanavalin A-Sepharose® (Pharmacia Ltd, Milton Keynes, Bucks, U.K.) [Phillips et al., Biochem. J. 153, 579-587 (1976)]. The residual intermediate (Golgi) α-mannosidase II activity in extracts of fibroblasts from a patient with the lysosomal storage disease, mannosidosis, was assayed at pH 5.75 using the synthetic substrate (Burditt et al, Ibid.). The specificity of the inhibitors was determined by assaying the glycosidases in the presence and absence of a 1 mM solution of each compound. The nature of the inhibition and the value of Ki were determined using the Dixon graphical procedure.
(§3) Enzymic activities were measured in the presence and absence of 1 mM inhibitor. Inhibition (%) was calculated as the fraction of activity lost in the presence of inhibitor. The values are means of two to four independent determinations.

[2] = molecular target: T2, α-L-fucosidase (Homo sapiens, UniProt P04066); assay: Inhibition of α-L-fucosidase in human liver extract; conditions: for inhibition at 1000 µM: 1 mM inhibitor, 0.5 mM substrate, optimal pH, mean of 2-4 determinations
T2 construct: The glycosidase activities in an extract of normal human liver were assayed; from tissue; host or cells: post mortem human liver, 37,000 g supernatant
T2 sequence (P04066 32-466): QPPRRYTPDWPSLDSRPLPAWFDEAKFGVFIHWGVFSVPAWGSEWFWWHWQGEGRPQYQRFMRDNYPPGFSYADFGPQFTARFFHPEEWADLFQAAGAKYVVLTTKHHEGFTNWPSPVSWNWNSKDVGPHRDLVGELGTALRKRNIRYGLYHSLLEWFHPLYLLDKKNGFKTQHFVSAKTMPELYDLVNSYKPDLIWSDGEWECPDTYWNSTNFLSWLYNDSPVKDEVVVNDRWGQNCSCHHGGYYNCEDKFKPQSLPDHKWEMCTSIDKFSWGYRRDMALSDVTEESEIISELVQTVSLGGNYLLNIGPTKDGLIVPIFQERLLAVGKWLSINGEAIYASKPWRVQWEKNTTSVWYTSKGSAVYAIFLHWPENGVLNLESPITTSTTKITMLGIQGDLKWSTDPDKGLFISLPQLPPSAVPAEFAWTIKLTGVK
Procedure: The fraction of activity lost in the presence of the inhibitor was calculated for each pH; =α-L-fucosidase activity; o=inhibition (%).
as §1, §2, §3

[3] = system: N-acetyl hexosaminidase; assay: Inhibition of N-acetyl hexosaminidase in human liver extract; conditions: 1 mM inhibitor; 0.5 mM substrate; optimal pH; mean of 2-4 determinations
Procedure: as §1, §2, §3

| inhibition at 1000 µM [1] [%] | inhibition at 1000 µM [2] [%] | Inhibition (%) [3] [%] | nature of the inhibition ([2]; Dixon graphical procedure) | pH-dependence of inhibition ([2]; FIG. 1) | Ki ([2]; pH 5.5, Dixon graphical procedure) [µM] | SMILES |
| --- | --- | --- | --- | --- | --- | --- |
| 4 | 28 | 37 |  |  |  | CN1C[C@@H](O)[C@@H](O)[C@@H]1[C@@H](O)CO [N-methyl DIA, N-methyl-1,4-dideoxy-1,4-imino-L-allitol] |
| 0 | 74 | 15 | competitive | pH-dependent | 50 | OC[C@H](O)[C@H]1[C@H](O)[C@H](O)CN1Cc1ccccc1 [N-benzyl DIA, N-benzyl-1,4-dideoxy-1,4-imino-L-allitol] |

| SMILES | inhibition at 1000 µM [1] [%] | inhibition at 1000 µM [2] [%] | Inhibition (%) [3] [%] | nature of the inhibition ([2]; Dixon graphical procedure) | pH-dependence of inhibition ([2]; FIG. 1) | Ki ([2]; pH 5.5, Dixon graphical procedure) [µM] |
| --- | --- | --- | --- | --- | --- | --- |
| OC[C@H](O)[C@@H]1NC[C@@H](O)[C@H]1O [DIA, 1,4-dideoxy-1,4-imino-L-allitol] | 14 | 60 | 42 |  |  |  |
